{
  "source": "paper PMC6028453",
  "about": "“BrlR from Pseudomonas aeruginosa is a receptor for both cyclic di-GMP and pyocyanin” (Nature Communications, 2018)",
  "key": {"BrlR Y270A DNA binding": {"molecular_target": "T1, BrlR Y270A DNA binding (Pseudomonas aeruginosa, UniProt Q9HUT5, Y270A)", "T1 construct": "His6-SUMO (N, cleaved yes); made in house; host or cells: E. coli BL21 DE3", "T1 sequence (Q9HUT5 whole entry Y270A)": "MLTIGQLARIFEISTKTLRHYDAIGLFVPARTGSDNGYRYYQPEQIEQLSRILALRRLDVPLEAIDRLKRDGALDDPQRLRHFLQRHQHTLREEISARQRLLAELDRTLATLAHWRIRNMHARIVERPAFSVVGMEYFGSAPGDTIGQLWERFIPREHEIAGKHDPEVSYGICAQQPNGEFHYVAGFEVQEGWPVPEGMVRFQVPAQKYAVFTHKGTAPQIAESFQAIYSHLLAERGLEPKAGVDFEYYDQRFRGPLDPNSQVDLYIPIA", "test": "EMSA, BrlR Y270A", "type": "biochemical", "procedure": "(§1) A 6-carboxy-fluorescein (FAM)-labeled 36-bp brlR promoter DNA (PbrlR) or 80-bp mexA/mexE promoter DNA (PmexA/PmexE) probes (~0.375 pmol), BrlR protein and varying amounts of inducers were incubated in binding buffer (10 mM Tris HCl [pH 7.4], 50 mM KCl, 1 mM DTT, […] and 5 ng/mL poly [dI-dC]) for 60 min at 25 °C. Finally, glycerol was added to a concentration of 6.5%. The samples were subjected to a 5% polyacrylamide gel electrophoresis and run in 0.5 × Tris-borate-EDTA buffer at 80 V for 1 h at room temperature. Imaging and data analyses were performed using a Typhoon Scanner (GE Healthcare) and Imagequant software. The probes used are listed in Supplementary Table 1."}, "C2E mut2 DNA binding": {"molecular_target": "T2, C2E mut2 DNA binding (Pseudomonas aeruginosa, UniProt Q9HUT5, R67A/R86A)", "T2 construct": "His6-SUMO (N, cleaved yes); made in house; host or cells: E. coli BL21 DE3", "T2 sequence (Q9HUT5 whole entry R67A/R86A)": "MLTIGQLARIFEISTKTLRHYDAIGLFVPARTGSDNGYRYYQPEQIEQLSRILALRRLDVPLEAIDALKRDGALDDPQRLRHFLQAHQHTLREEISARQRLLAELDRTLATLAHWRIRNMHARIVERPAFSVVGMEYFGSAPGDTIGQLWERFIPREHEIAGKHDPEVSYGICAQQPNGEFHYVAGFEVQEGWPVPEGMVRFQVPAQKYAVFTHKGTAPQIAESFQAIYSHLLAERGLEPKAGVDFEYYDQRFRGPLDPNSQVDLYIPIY", "test": "EMSA, C2E mut2 with PbrlR DNA", "type": "biochemical", "procedure": "as §1"}, "[1]": {"molecular_target": "T3, C2E mut3 (R31A/D35A/Y40A/R67A/R86A/Y270A) DNA binding (Pseudomonas aeruginosa, UniProt Q9HUT5, D35A/R31A/R67A/R86A/Y270A/Y40A)", "T3 construct": "His6-SUMO (N, cleaved yes); made in house; host or cells: E. coli BL21 DE3", "T3 sequence (Q9HUT5 whole entry R31A/D35A/Y40A/R67A/R86A/Y270A)": "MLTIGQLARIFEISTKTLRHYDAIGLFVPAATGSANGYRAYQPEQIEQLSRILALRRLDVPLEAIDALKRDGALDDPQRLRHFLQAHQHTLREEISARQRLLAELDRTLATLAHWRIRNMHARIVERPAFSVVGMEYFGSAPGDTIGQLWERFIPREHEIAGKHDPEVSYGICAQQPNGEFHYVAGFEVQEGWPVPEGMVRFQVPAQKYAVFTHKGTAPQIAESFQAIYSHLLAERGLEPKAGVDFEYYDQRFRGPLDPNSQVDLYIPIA", "test": "EMSA, C2E mut3", "type": "biochemical", "procedure": "as §1"}, "C2E mut1 DNA binding": {"molecular_target": "T4, C2E mut1 DNA binding (Pseudomonas aeruginosa, UniProt Q9HUT5, D35A/R31A/Y270A/Y40A)", "T4 construct": "His6-SUMO (N, cleaved yes); made in house; host or cells: E. coli BL21 DE3", "T4 sequence (Q9HUT5 whole entry R31A/D35A/Y40A/Y270A)": "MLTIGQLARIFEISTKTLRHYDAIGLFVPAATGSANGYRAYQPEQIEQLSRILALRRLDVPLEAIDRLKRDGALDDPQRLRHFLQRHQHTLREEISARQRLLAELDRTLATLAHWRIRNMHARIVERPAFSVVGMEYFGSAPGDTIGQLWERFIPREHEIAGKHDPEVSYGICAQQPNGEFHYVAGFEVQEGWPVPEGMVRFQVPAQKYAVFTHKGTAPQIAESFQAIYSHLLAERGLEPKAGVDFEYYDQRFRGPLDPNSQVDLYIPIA", "test": "EMSA, C2E mut1 with PbrlR DNA", "type": "biochemical", "procedure": "as §1"}, "BrlR-DNA binding (PbrlR)": {"molecular_target": "T5, BrlR-DNA binding (PbrlR) (Pseudomonas aeruginosa, UniProt Q9HUT5)", "T5 construct": "His6-SUMO (N, cleaved yes); made in house; host or cells: E. coli BL21 DE3", "test": "EMSA, wild-type BrlR with PbrlR DNA", "type": "biochemical", "procedure": "as §1"}, "[2]": {"test_system": "brlR promoter activity (C2E mut2)", "test": "β-galactosidase assay, C2E mut2", "type": "cell-based, Pseudomonas aeruginosa", "procedure": "We also performed β-galactosidase activity assays using a PbrlR-brlR-lacZ reporter construct to investigate the transcriptional function of BrlR mutants in vivo. […] To confirm the effect of c-di-GMP in P. aeruginosa, we carried out real-time quantitative PCR analyses. Following a previous report, we introduced the diguanylate cyclase PA4843 into a WT P. aeruginosa strain carrying either pHERD20T-empty or pHERD20T-PA4843. The transcription level of brlR was analyzed using the brlR 5 F and brlR 3 R primers (Supplementary Table 1). The transcriptional level of brlR in pHERD20T-PA4843 strain is 4.5 ± 1.3-fold higher than that in the pHERD20T-empty strain (Fig. 4h).\nβ-galactosidase activity was assayed with P. aeruginosa PA01 ΔbrlR strain carrying plasmid pME6522-borne transcriptional lacZ fusions. P. aeruginosa carrying the empty vector was used as the […]. The reporter plasmids are derivatives of the pME6522 plasmid in which multiple cloning sites were inserted before the LacZ with the promoter and coding regions of brlR with diverse mutations. These reporter plasmids were transformed into the reporter strain. Overnight cultures were diluted 20-fold with LB medium supplemented with appropriate antibiotics. […]"}, "BrlR R86A DNA binding": {"molecular_target": "T6, BrlR R86A DNA binding (Pseudomonas aeruginosa, UniProt Q9HUT5, R86A)", "T6 construct": "His6-SUMO (N, cleaved yes); made in house; host or cells: E. coli BL21 DE3", "T6 sequence (Q9HUT5 whole entry R86A)": "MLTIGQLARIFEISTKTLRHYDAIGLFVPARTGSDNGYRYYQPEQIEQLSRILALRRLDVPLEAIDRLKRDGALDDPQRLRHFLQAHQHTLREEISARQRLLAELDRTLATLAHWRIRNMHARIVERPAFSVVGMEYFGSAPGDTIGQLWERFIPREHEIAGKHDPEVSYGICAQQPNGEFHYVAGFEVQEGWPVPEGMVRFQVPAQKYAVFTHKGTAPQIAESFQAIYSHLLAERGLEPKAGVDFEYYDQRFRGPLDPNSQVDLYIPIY", "test": "EMSA, BrlR R86A", "type": "biochemical", "procedure": "as §1"}, "BrlR mutant Y40A": {"molecular_target": "T7, BrlR mutant Y40A (Pseudomonas aeruginosa, UniProt Q9HUT5, Y40A)", "T7 construct": "His6-SUMO (N, cleaved yes); made in house; host or cells: E. coli BL21 DE3", "T7 sequence (Q9HUT5 whole entry Y40A)": "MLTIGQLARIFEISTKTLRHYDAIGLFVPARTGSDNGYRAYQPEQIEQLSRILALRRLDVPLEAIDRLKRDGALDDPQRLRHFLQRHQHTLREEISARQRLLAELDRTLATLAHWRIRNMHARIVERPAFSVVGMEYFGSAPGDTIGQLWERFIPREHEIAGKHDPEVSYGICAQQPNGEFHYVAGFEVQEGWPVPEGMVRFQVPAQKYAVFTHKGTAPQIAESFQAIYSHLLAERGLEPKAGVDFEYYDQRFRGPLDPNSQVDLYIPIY", "test": "FP binding assay, BrlR Y40A", "procedure": "F-c-di-GMP and F-c-di-AMP both contain a fluorophore at one of the 2′-ribose hydroxyls of c-di-GMP and c-di-AMP, respectively (Fig. 2f). To measure the binding of c-di-GMP and c-di-AMP to BrlR variants, 1 nM F-c-di-GMP or F-c-di-AMP was incubated with increasing amounts of indicated BrlR WT, BrlR mutation, or BrlR-C in reaction buffer (25 mM HEPES, 100 mM NaCl, pH 7.5) at 25 °C for 20 min. 1 nM fluorescein was incubated with BrlR WT in the same reaction buffer at 25 °C. FP measurements were conducted on a Synergy 4 Microplate Reader (BioTek) at 25 °C. All experiments were performed in triplicate. The curves were fitted to deduce binding affinities by GraphPad Prism 5.\nBrlR–c-di-GMPs interactions in two separate c-di-GMP binding sites\nIn the first binding site, c-di-GMP is half accommodated by the antiparallel β-sheet and two residues (M1 and D35). In detail, the backbone amide protons of the first M1 residue form a hydrogen bond (H-bond) with the phosphate oxygen atom of c-di-GMP, and the side chain of R31 forms two H-bonds with the Gua1 base. The residue D35 also forms an H-bond with the Gua1 base. The aromatic ring of Y40 interacts with the Gua1 base through a hydrophobic π-π interaction. In addition, the hydroxyl group of the Y270 side chain from another subunit interacts with the phosphate 2 of c-di-GMP via an H-bond (Fig. 2d). […]"}},
  "data": [
    {"smiles": "Nc1nc2c(ncn2[C@@H]2O[C@@H]3COP(=O)(O)O[C@H]4[C@@H](O)[C@H](n5cnc6c(=O)[nH]c(N)nc65)O[C@@H]4COP(=O)(O)O[C@H]3[C@H]2O)c(=O)[nH]1", "note": "[c-di-GMP, cyclic diguanylate monophosphate]", "values": [
      {"measurement": "DNA bound in the presence vs absence of c-di-GMP", "setting": "BrlR Y270A DNA binding", "result": "~ 3.4 fold"},
      {"measurement": "BrlR-DNA complex in the presence vs absence of c-di-GMP", "setting": "C2E mut2 DNA binding", "result": 1.9, "unit": "fold"},
      {"measurement": "effect of c-di-GMP on DNA binding", "setting": "[1]", "result": "did not have any effect"},
      {"measurement": "BrlR-DNA complex in the presence vs absence of c-di-GMP", "setting": "C2E mut1 DNA binding", "result": 1.5, "unit": "fold"},
      {"measurement": "effect of c-di-GMP and pyocyanin together on BrlR-DNA binding", "setting": "BrlR-DNA binding (PbrlR); PbrlR, c-di-GMP, pyocyanin, and both", "result": "cooperatively enhance"},
      {"measurement": "BrlR-DNA complex in the presence vs absence of c-di-GMP", "setting": "BrlR-DNA binding (PbrlR); wild-type BrlR, band densitometry", "result": 5.5, "unit": "fold"},
      {"measurement": "effect on BrlR-PbrlR DNA binding (in words)", "setting": "BrlR-DNA binding (PbrlR); wild-type BrlR, increasing concentrations of compound", "result": "significantly promoted"},
      {"measurement": "increase at high vs low c-di-GMP concentration (β-galactosidase activity)", "setting": "[2]", "result": 2.2, "unit": "fold"},
      {"measurement": "DNA bound in the presence vs absence of c-di-GMP", "setting": "BrlR R86A DNA binding", "result": "~ 1.5 fold"},
      {"measurement": "Kd", "setting": "BrlR mutant Y40A", "result": "34.2 ± 2.6", "unit": "µM"}
    ]}
  ]
}
